Numbered stars: 1 amine (or outer) side, 2 acyl side, 3 side chain; on linkers, the order of the positions; unused ones are H or OH. Bridge positions count the residues as written; N and C are the ends. Square brackets hold non-standard residues; d marks the D form. Side chains are listed from the residue outwards. Peptide text beside a SMILES is read from it. * marks the point of attachment. C20 diacid = O=C(O)CCCCCCCCCCCCCCCCCCC(=O)*; C18 diacid = O=C(O)CCCCCCCCCCCCCCCCC(=O)*; γGlu = O=C(O)[C@H](CCC(=O)[*:2])N[*:1]; Hyp = O=C(O)[C@@H]1C[C@@H](O)CN1; Dab = NCC[C@H](N)C(=O)O; AEEA = NCCOCCOCC(=O)O

For one assay, the target named is T1, human amylin receptor (Homo sapiens, UniProt O60896+P30988).
T1 construct: host or cells: CHO-K1/Ga15/AMY3 cells, further stably transfected with a CRE-luciferase plasmid
T1 sequence (P30988 25-474): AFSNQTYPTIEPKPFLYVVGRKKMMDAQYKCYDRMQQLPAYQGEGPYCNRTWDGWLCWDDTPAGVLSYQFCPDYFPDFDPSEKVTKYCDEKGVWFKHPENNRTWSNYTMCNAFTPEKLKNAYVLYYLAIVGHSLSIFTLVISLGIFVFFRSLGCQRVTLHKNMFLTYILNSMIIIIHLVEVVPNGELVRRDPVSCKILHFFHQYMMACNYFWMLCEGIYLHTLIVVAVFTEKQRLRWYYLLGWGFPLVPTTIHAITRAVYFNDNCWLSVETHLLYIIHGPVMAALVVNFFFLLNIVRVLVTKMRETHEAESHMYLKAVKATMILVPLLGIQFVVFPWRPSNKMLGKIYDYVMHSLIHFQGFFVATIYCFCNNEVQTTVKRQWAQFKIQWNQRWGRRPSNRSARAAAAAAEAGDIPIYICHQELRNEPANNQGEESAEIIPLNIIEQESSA
T1 sequence (O60896 24-148 partner): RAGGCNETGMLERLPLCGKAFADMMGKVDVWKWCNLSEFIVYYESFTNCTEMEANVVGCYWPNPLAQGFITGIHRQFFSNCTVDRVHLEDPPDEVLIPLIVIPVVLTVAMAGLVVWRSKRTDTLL
The assay is described as follows: Luciferase assay of amylin derivatives in amylin receptor/CRE-luc CHO cell line. It is filed as cell-based. To be noted: CHO-K1/Ga15/AMY3 CRE-luc cells, 24 hours incubation, F12 medium containing 10% FBS; read-out: EC50.
Experimental: The experiment was intended to detect the activity or efficacy of the amylin derivatives on a human amylin receptor in vitro by luciferase assay.
50 μL of growth medium (F12 medium containing 10% FBS) was added into each well of a white 96-well plate, and the stably transfected amylin/CRE-lue CHO cells were inoculated into the white 96-well plate at a density of about 20,000 cells/well for activity determination.
What is called EC50 is the concentration giving half of the maximal effect. Regarding `CC[C@H](C)[C@H](NC(=O)[C@@H]1CCCN1C(=O)CNC(=O)[C@H](CC(C)C)NC(=O)[C@H](CC(N)=O)NC(=O)[C@H](CC(N)=O)NC(=O)[C@H](CO)NC(=O)[C@H](CO)NC(=O)[C@H](Cc1c[nH]cn1)NC(=O)[C@H](CCCNC(=N)N)NC(=O)[C@H](CC(C)C)NC(=O)[C@H](Cc1ccccc1)NC(=O)[C@H](CC(=O)O)NC(=O)[C@H](C)NC(=O)[C@H](CC(C)C)NC(=O)[C@H](CCCNC(=N)N)NC(=O)[C@H](CCC(N)=O)NC(=O)[C@@H](NC(=O)[C@H](C)NC(=O)[C@@H]1CSSC[C@H](NC(=O)[C@H](CCCCN)NC(=O)CC[C@H](NC(=O)CCCCCCCCCCCCCCCCC(=O)O)C(=O)O)C(=O)N[C@@H](CC(N)=O)C(=O)N[C@@H]([C@@H](C)O)C(=O)N[C@@H](C)C(=O)N[C@@H]([C@@H](C)O)C(=O)N1)[C@@H](C)O)C(=O)N[C@@H](CC(C)C)C(=O)N1CCC[C@H]1C(=O)N1CCC[C@H]1C(=O)N[C@H](C(=O)N[C@@H](CC(N)=O)C(=O)N[C@H](C(=O)NCC(=O)N[C@@H](CO)C(=O)N[C@@H](CC(N)=O)C(=O)N[C@H](C(=O)N1C[C@H](O)C[C@H]1C(N)=O)[C@@H](C)O)C(C)C)[C@@H](C)O` [PD124] ({C18 diacid-γGlu}-KCNTATCATQRLADFLRHSSNNLGPILPPTNVGSNT[Hyp]-NH2; disulfide 2-7), the concentration giving a half-maximal response (EC50) turned out to be 0.008 nM.

In the case of `CC[C@H](C)[C@H](NC(=O)[C@@H]1CCCN1C(=O)[C@H](CCN)NC(=O)[C@H](CC(C)C)NC(=O)[C@H](CC(N)=O)NC(=O)[C@H](CC(N)=O)NC(=O)[C@H](CO)NC(=O)[C@H](CO)NC(=O)[C@H](Cc1c[nH]cn1)NC(=O)[C@H](CCCNC(=N)N)NC(=O)[C@H](CC(C)C)NC(=O)[C@H](Cc1ccccc1)NC(=O)[C@H](CC(=O)O)NC(=O)[C@H](C)NC(=O)[C@H](CC(C)C)NC(=O)[C@H](CCCNC(=N)N)NC(=O)[C@H](CCC(N)=O)NC(=O)[C@@H](NC(=O)[C@H](C)NC(=O)[C@@H]1CSSC[C@H](NC(=O)[C@H](CCCCN)NC(=O)CC[C@H](NC(=O)CCCCCCCCCCCCCCCCCCC(=O)O)C(=O)O)C(=O)N[C@@H](CC(N)=O)C(=O)N[C@@H]([C@@H](C)O)C(=O)N[C@@H](C)C(=O)N[C@@H]([C@@H](C)O)C(=O)N1)[C@@H](C)O)C(=O)N[C@@H](CC(C)C)C(=O)N1CCC[C@H]1C(=O)N1CCC[C@H]1C(=O)N[C@H](C(=O)N[C@@H](CC(N)=O)C(=O)N[C@H](C(=O)NCC(=O)N[C@@H](CO)C(=O)N[C@@H](CC(N)=O)C(=O)N[C@H](C(=O)N1CCC[C@H]1C(N)=O)[C@@H](C)O)C(C)C)[C@@H](C)O` [PD169] ({C20 diacid-γGlu}-KCNTATCATQRLADFLRHSSNNL[Dab]PILPPTNVGSNTP-NH2; disulfide 2-7 (inferred)), the EC50 was determined as 0.039 nM.

In the case of `CC[C@H](C)[C@H](NC(=O)[C@@H]1CCCN1C(=O)[C@H](CCCCNC(=O)CC[C@H](NC(=O)CCCCCCCCCCCCCCCCCCC(=O)O)C(=O)O)NC(=O)[C@H](CC(C)C)NC(=O)[C@H](CC(N)=O)NC(=O)[C@H](CC(N)=O)NC(=O)[C@H](CO)NC(=O)[C@H](CO)NC(=O)[C@H](Cc1c[nH]cn1)NC(=O)[C@H](CCCNC(=N)N)NC(=O)[C@H](CC(C)C)NC(=O)[C@H](Cc1ccccc1)NC(=O)[C@H](CC(=O)O)NC(=O)[C@H](C)NC(=O)[C@H](CC(C)C)NC(=O)[C@H](CCCNC(=N)N)NC(=O)[C@H](CCC(N)=O)NC(=O)[C@@H](NC(=O)[C@H](C)NC(=O)[C@@H]1CSSC[C@H](NC(=O)[C@@H](N)CCN)C(=O)N[C@@H](CC(N)=O)C(=O)N[C@@H]([C@@H](C)O)C(=O)N[C@@H](C)C(=O)N[C@@H]([C@@H](C)O)C(=O)N1)[C@@H](C)O)C(=O)N[C@@H](CC(C)C)C(=O)N1CCC[C@H]1C(=O)N1CCC[C@H]1C(=O)N[C@H](C(=O)N[C@@H](CC(N)=O)C(=O)N[C@H](C(=O)NCC(=O)N[C@@H](CO)C(=O)N[C@@H](CC(N)=O)C(=O)N[C@H](C(=O)N1C[C@H](O)C[C@H]1C(N)=O)[C@@H](C)O)C(C)C)[C@@H](C)O` [PD074] (H-[Dab]CNTATCATQRLADFLRHSSNNLK([γGlu-C20 diacid])PILPPTNVGSNT[Hyp]-NH2; disulfide 2-7), the concentration for a half-maximal effect (EC50) came to 0.066 nM. Still for that read-out and setting: next, `CC[C@H](C)[C@H](NC(=O)[C@@H]1CCCN1C(=O)CNC(=O)[C@H](CC(C)C)NC(=O)[C@H](CC(N)=O)NC(=O)[C@H](CC(N)=O)NC(=O)[C@H](CO)NC(=O)[C@H](CO)NC(=O)[C@H](Cc1c[nH]cn1)NC(=O)[C@H](CCCNC(=N)N)NC(=O)[C@H](CC(C)C)NC(=O)[C@H](Cc1ccccc1)NC(=O)[C@H](CC(=O)O)NC(=O)[C@H](C)NC(=O)[C@H](CC(C)C)NC(=O)[C@H](CCCNC(=N)N)NC(=O)[C@H](CCC(N)=O)NC(=O)[C@@H](NC(=O)[C@H](C)NC(=O)[C@@H]1CSSC[C@H](NC(=O)[C@H](CCCCN)NC(=O)CC[C@H](NC(=O)CCCCCCCCCCCCCCCCCCC(=O)O)C(=O)O)C(=O)N[C@@H](CC(N)=O)C(=O)N[C@@H]([C@@H](C)O)C(=O)N[C@@H](C)C(=O)N[C@@H]([C@@H](C)O)C(=O)N1)[C@@H](C)O)C(=O)N[C@@H](CC(C)C)C(=O)N1CCC[C@H]1C(=O)N1CCC[C@H]1C(=O)N[C@H](C(=O)N[C@@H](CC(N)=O)C(=O)N[C@H](C(=O)NCC(=O)N[C@@H](CO)C(=O)N[C@@H](CC(N)=O)C(=O)N[C@H](C(=O)N1C[C@H](O)C[C@H]1C(N)=O)[C@@H](C)O)C(C)C)[C@@H](C)O` [PD069] ({C20 diacid-γGlu}-KCNTATCATQRLADFLRHSSNNLGPILPPTNVGSNT[Hyp]-NH2; disulfide 2-7): 0.039 nM; `CC[C@H](C)[C@H](NC(=O)[C@@H]1CCCN1C(=O)[C@H](Cc1c[nH]cn1)NC(=O)[C@H](CC(C)C)NC(=O)[C@H](CC(N)=O)NC(=O)[C@H](CC(N)=O)NC(=O)[C@H](CO)NC(=O)[C@H](CO)NC(=O)[C@H](Cc1c[nH]cn1)NC(=O)[C@H](CCCNC(=N)N)NC(=O)[C@H](CC(C)C)NC(=O)[C@H](Cc1ccccc1)NC(=O)[C@H](CC(=O)O)NC(=O)[C@H](C)NC(=O)[C@H](CC(C)C)NC(=O)[C@H](CCCNC(=N)N)NC(=O)[C@H](CCC(N)=O)NC(=O)[C@@H](NC(=O)[C@H](C)NC(=O)[C@@H]1CSSC[C@H](NC(=O)[C@H](CCCCN)NC(=O)CC[C@H](NC(=O)CCCCCCCCCCCCCCCCCCC(=O)O)C(=O)O)C(=O)N[C@@H](CC(N)=O)C(=O)N[C@@H]([C@@H](C)O)C(=O)N[C@@H](C)C(=O)N[C@@H]([C@@H](C)O)C(=O)N1)[C@@H](C)O)C(=O)N[C@@H](CC(C)C)C(=O)N1CCC[C@H]1C(=O)N1CCC[C@H]1C(=O)N[C@H](C(=O)N[C@@H](CC(N)=O)C(=O)N[C@H](C(=O)NCC(=O)N[C@@H](CO)C(=O)N[C@@H](CC(N)=O)C(=O)N[C@H](C(=O)N1C[C@H](O)C[C@H]1C(N)=O)[C@@H](C)O)C(C)C)[C@@H](C)O` [PD159] ({C20 diacid-γGlu}-KCNTATCATQRLADFLRHSSNNLHPILPPTNVGSNT[Hyp]-NH2; disulfide 2-7): 0.037 nM.

The assay is the same for the next values; noted with them: EC50, CHO-K1/Ga15/AMY3 CRE-luc cells, 24 hours incubation, F12 medium containing 10% FBS.
`CC[C@H](C)[C@H](NC(=O)[C@@H]1CCCN1C(=O)CNC(=O)[C@H](CC(C)C)NC(=O)[C@H](CC(N)=O)NC(=O)[C@H](CC(N)=O)NC(=O)[C@H](CO)NC(=O)[C@H](CCCCNC(=O)COCCOCCNC(=O)COCCOCCNC(=O)CC[C@H](NC(=O)CCCCCCCCCCCCCCCCC(=O)O)C(=O)O)NC(=O)[C@H](Cc1c[nH]cn1)NC(=O)[C@H](CCCNC(=N)N)NC(=O)[C@H](CC(C)C)NC(=O)[C@H](Cc1ccccc1)NC(=O)[C@H](CC(=O)O)NC(=O)[C@H](C)NC(=O)[C@H](CC(C)C)NC(=O)[C@H](CCCNC(=N)N)NC(=O)[C@H](CCC(N)=O)NC(=O)[C@@H](NC(=O)[C@H](C)NC(=O)[C@@H]1CSSC[C@H](NC(=O)[C@@H](N)CCCNC(=N)N)C(=O)N[C@@H](CC(N)=O)C(=O)N[C@@H]([C@@H](C)O)C(=O)N[C@@H](C)C(=O)N[C@@H]([C@@H](C)O)C(=O)N1)[C@@H](C)O)C(=O)N[C@@H](CC(C)C)C(=O)N1CCC[C@H]1C(=O)N1CCC[C@H]1C(=O)N[C@H](C(=O)N[C@@H](CC(N)=O)C(=O)N[C@H](C(=O)NCC(=O)N[C@@H](CO)C(=O)N[C@@H](CC(N)=O)C(=O)N[C@H](C(=O)N1C[C@H](O)C[C@H]1C(N)=O)[C@@H](C)O)C(C)C)[C@@H](C)O` [PD101] (H-RCNTATCATQRLADFLRHK([AEEA-AEEA-γGlu-C18 diacid])SNNLGPILPPTNVGSNT[Hyp]-NH2; disulfide 2-7) yielded an EC50 of 0.012 nM.
